Data reported in patent publication US9693992B2 (MannKind Corporation, priority 2010, dated 2017).

System: XBP-1 splicing
Test: XBP-1 splicing inhibition in livers and kidneys of CB17 SCID mice after tunicamycin
Assay type: in vivo
Conditions: 1 mg/kg IP, alone, relative to PBS treated mice
Description: The preclinical validation strategy employs a set of animal models representing normal tissues under chemical stress and multiple myeloma xenographs. The normal animal model is employed as a surrogate model where dose-related on-target activity of compounds can be confirmed in tissues sensitive to standard UPR inducing agents such as tunicamycin (Wu et al., Dev Cell. 2007 September; 13(1d):351-64). […] Upon induction with tunicamycin, tissues induce active XBP-1 mRNA splicing, and this activity is suppressed by IRE-1α inhibitors. This on-target ER stress animal model is a useful screening and early pharmacokinetic tool.
CB17 SCID mice were treated with 1 mg/kg tunicamycin by intraperitoneal (IP) injection at time 0 (T=0). Two hours later, compound A formulated in 10% hydroxy beta propyl cyclo dextran HBPCD was administered by IP injection. Doses were 50 mg/kg, 25 mg/kg and 10 mg/kg (4 mice in each group). Mice were sacrificed two hours later (4 hours from T=0), and the designated organs were harvested (FIG. 3A).
RT-PCR analysis was performed using murine-specific XBP-1 primers from total RNA harvested from specified organs. […] Each lane represents an individual mouse where RNA was harvested and RT-PCR was performed. Method of RNA extraction and RT-PCR analysis is described in Volkmann et al., J. Biol. Chem. 286, 12743-55, 2011. […]

tunicamycin
induction of XBP-1s: induces XBP-1 spliced
